The text below walks through data of BindingDB's records for doi:10.1038/nchembio.2134 (University of Pennsylvania, 2016).

Molecules are shown by their SMILES. pIC50, pKd, pKi: −log10 of the molar value.

What all share (assay): HDAC6 fluorescence anisotropy assay
Common to all, as to details: 25 °C

Test [1] concerns the target T1, Histone deacetylase 6 [440-798] (Danio rerio, UniProt F8W4B7).
T1 construct: 440-798
T1 sequence (F8W4B7 whole entry): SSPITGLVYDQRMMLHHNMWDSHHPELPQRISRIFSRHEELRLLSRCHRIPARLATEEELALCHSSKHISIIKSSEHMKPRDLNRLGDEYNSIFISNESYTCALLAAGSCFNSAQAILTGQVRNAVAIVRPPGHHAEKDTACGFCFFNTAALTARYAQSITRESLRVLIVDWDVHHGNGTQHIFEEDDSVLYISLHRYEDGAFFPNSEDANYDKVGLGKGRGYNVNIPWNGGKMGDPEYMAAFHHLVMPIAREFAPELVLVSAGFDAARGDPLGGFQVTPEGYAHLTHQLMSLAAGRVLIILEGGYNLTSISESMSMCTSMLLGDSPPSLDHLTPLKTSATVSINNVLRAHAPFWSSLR

Test [2] has as its target T2, Histone deacetylase 6 [84-835,H651V] (Homo sapiens, UniProt Q9UBN7, H651V).
T2 construct: 84-835

In test [3] the target is T3, Histone deacetylase 6 [440-798,S531A] (Danio rerio, UniProt F8W4B7, S531A).
T3 construct: 440-798

The target of test [4] is T4, Histone deacetylase 6 [84-835,H255V] (Homo sapiens, UniProt Q9UBN7, H255V).
T4 construct: 84-835

Test [5] deals with T5, Histone deacetylase 6 [60-420,H82F,F202Y] (Danio rerio, UniProt F8W4B7, F202Y/H82F).
T5 construct: 60-420

Test [6] has as its target T6, Histone deacetylase 6 [84-835] (Homo sapiens, UniProt Q9UBN7).
T6 construct: 84-835
T6 sequence (Q9UBN7 whole entry): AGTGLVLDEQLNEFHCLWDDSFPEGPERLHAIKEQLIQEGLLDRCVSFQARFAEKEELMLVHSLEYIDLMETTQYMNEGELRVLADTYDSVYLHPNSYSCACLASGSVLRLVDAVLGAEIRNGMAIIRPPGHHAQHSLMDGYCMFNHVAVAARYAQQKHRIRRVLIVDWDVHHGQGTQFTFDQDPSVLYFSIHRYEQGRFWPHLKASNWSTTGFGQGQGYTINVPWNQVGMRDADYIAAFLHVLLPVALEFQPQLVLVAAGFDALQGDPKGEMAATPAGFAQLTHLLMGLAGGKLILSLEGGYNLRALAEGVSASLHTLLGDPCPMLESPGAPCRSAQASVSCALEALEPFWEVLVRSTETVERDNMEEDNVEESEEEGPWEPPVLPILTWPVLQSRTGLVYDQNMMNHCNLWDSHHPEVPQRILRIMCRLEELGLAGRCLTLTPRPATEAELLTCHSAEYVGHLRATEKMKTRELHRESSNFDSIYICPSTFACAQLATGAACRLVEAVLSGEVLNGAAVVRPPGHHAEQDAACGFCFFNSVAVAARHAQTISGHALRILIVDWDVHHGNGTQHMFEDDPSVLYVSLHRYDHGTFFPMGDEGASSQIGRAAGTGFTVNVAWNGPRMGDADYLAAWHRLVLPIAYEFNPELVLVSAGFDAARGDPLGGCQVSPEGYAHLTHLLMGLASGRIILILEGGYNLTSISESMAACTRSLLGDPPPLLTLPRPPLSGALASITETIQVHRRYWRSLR

Test [7] has as its target T7, Histone deacetylase 6 [60-420] (Danio rerio, UniProt F8W4B7).
T7 construct: 60-420
T7 sequence (F8W4B7 whole entry): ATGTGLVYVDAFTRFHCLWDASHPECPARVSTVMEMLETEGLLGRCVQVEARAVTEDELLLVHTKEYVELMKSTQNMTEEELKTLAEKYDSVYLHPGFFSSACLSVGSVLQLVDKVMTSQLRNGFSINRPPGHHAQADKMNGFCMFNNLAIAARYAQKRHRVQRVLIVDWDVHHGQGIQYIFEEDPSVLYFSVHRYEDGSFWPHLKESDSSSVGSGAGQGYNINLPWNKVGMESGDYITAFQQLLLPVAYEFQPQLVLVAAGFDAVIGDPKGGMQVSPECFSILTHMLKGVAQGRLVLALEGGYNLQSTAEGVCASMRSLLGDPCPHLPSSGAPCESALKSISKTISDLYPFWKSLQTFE

T5 sequence (F8W4B7 as listed by the source H82F/F202Y): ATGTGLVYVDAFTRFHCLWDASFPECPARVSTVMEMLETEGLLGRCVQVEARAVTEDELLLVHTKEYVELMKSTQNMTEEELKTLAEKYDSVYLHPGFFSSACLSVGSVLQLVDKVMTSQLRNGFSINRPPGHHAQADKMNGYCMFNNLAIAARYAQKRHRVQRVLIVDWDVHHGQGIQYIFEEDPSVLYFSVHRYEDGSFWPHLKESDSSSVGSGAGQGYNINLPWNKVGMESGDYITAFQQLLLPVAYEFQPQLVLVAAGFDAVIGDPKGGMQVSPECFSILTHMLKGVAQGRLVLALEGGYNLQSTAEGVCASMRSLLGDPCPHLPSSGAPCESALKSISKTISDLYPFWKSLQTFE
T4 sequence (Q9UBN7 84-835 H255V): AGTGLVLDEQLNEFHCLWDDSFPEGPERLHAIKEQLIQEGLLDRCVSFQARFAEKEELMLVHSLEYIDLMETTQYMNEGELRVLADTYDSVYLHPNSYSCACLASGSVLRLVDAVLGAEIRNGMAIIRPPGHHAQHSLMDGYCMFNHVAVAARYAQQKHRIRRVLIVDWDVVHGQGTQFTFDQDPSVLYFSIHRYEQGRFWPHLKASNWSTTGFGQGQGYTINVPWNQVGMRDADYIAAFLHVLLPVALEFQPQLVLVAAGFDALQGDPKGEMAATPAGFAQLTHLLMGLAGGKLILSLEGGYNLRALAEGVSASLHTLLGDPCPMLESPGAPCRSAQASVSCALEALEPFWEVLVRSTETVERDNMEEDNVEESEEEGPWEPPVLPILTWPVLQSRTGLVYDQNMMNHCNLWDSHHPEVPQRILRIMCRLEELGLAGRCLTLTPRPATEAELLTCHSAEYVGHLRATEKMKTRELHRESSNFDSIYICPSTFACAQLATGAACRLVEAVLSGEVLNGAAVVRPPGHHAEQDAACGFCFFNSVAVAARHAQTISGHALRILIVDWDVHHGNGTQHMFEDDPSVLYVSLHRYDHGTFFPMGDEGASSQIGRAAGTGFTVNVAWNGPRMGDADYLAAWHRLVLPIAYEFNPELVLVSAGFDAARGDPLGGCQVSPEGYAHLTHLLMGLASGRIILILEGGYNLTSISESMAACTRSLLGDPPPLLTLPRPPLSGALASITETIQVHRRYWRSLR
T2 sequence (Q9UBN7 84-835 H651V): as the sequence (Q9UBN7 84-835 H255V) above, with V172H, H568V counted along it
T3 sequence (F8W4B7 as listed by the source S531A): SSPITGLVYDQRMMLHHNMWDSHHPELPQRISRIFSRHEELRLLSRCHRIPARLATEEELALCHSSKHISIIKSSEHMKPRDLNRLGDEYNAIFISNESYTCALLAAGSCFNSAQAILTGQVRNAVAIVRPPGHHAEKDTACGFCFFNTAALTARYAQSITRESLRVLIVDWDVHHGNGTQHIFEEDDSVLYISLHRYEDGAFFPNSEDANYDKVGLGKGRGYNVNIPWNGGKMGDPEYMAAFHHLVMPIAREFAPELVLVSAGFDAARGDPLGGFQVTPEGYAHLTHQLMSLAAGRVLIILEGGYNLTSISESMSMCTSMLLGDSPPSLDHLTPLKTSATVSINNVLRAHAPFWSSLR

The term pIC50 denotes −log10 of the IC50, conventionally taken in molar units. Read a low pIC50 as a high IC50. As a reminder, the pKi is the negative decadic logarithm of the Ki, by convention in mol/L. A lower pKi goes with a large Ki. In test [1], `O=C(/C=C/c1cccc(S(=O)(=O)Nc2ccccc2)c1)NO` [Belinostat] showed a pIC50 of 8.72 and a pKi of 8.96.

In test [1], `O=C(NO)c1ccc(CC(=O)N(CCO)c2ccccc2)cc1` [HPOB] showed a pIC50 of 8.74 and a pKi of 9.00.

In test [1], `Cc1[nH]c2ccccc2c1CCNCc1ccc(C=CC(=O)NO)cc1` [Panobinostat] showed a pIC50 of 8.60 and a pKi of 8.85.

As for `CC(=O)C(F)(F)F` [Trifluoroketone], in test [1], the pIC50 is 5.85 and the pKi is 6.10.

In test [1], `O=C(CCCCCCC(=O)Nc1ccccc1)NO` [Zolinza] had a pIC50 of at least 8.96 and a pKi of 9.22.

One may read the pKd as −log10 of the Kd, conventionally taken in molar units. Low values mean a high Kd, high ones a low Kd. On to `O=C(CCCCCCC(=O)Nc1ccc(-c2c3ccc(=O)cc-3oc3cc(O)ccc23)c(C(=O)O)c1)NO` [fl-SAHA], for which the pKd in test [2] was 4.52; in test [1], 7.30; in test [3], 6.77; in test [4], 6.62; in test [5], 5.54; in test [6], 6.52. The compound also had a pKd in test [7] of 5.80.
